# Assay results published in patent US20140288110A1, “PPAR MODULATORS” (EVOLVA SA, priority 2006, published 2014).
# Assays:
# Type in all cases: cell-based
# [1] = target: T1, hRXRαLBD (Homo sapiens, UniProt P19793); test: RXR transactivation assay (hRXRαLBD)
# T1 construct: expressed in transfected cells
# T1 sequence (P19793 227-458 limits assumed): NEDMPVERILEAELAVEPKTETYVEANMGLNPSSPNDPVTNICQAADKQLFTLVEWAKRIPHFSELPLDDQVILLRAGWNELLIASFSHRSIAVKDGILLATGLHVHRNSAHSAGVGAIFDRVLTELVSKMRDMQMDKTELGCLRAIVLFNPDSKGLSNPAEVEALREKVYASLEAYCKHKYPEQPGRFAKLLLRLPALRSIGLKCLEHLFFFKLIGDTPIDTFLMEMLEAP
# Protocol: This example describes a retinoic acid X receptor transactivation assay.
# Compounds are tested for their ability to transactivate RXR essentially as described in Example 1.
# [2] = target: T2, full-length hPPARdelta (Homo sapiens, UniProt Q03181); test: Transactivation assay with full length human PPAR delta
# T2 construct: expressed in transfected cells
# T2 sequence (Q03181 1-441): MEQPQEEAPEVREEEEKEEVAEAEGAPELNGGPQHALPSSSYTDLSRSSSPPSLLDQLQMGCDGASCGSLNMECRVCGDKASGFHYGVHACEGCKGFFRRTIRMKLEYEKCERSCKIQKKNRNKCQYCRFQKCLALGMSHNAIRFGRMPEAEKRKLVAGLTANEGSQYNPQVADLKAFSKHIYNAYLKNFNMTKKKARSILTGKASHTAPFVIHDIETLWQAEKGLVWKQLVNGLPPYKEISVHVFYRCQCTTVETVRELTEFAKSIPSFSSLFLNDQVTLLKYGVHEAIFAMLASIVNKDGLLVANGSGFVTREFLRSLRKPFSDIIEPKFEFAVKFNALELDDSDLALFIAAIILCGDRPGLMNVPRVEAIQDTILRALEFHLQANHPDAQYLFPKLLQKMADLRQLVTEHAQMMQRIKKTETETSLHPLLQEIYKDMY
# [3] = system: PPARgamma ligand-binding domain (Gal4-PPARgammaLBD); test: PPARgamma transactivation assay (Gal4-PPARgammaLBD, UASx4-TK luc reporter)
# Excerpt: This is an example of a transactivation assay for determining PPAR gamma modulating activity.
# The UASx4-TK-luc reporter construct (where UAS refers to “upstream activator sequence”) contains four Gal4-responsive elements. The plasmid Gal4-PPARgammaLBD encodes a Gal4-DBD-PPARgamma-LBD fusion protein (i.e. the DNA-binding domain, DBD, of Gal4 fused to the ligand-binding domain, LBD, of PPARgamma) capable of transactivating the UASx4-TK-luc reporter plasmid by binding to the UAS. The CMV-beta-galactosidase plasmid (where CMV is cytomegalovirus) is used for normalization of experimental values.
# The cells were replated, typically in 24 well plates, so that at the time of transfection the cells are 50-70% confluent.
# Briefly, per well in a 24 well plate, UASx4TKluc (0.2 microg) Gal4-PPARgammaLBD (or pM-hPPARgamma-LBD; 0.1 microg) and CMV-beta-galactosidase (0.05 microg) in 30 μL DMEM (free of serum and antibiotics) is mixed with 30 microL DMEM (free of serum and antibiotics) containing 1 microL metafectenein. The mixture is incubated at room temperature for 20 min to allow formation of nucleic acid-lipid complexes and then approximately 60 microL is added to each well containing the 50-60% confluent cells. […] Cells were harvested after 12-24 hours and luciferase and beta-galactosidase activities were measured according to standard protocols.
# “−” means that testing was not performed.
# [4] = system: human pre-adipocytes; test: Adipocyte differentiation assay using human pre-adipocytes; settings: similar to DMSO
# [5] = system: HaCaT; test: Proliferation of non-cancer cell line HaCaT, flow cytometry; settings: 20 microM, 48 hours of treatment
# Protocol: (§1) A human cervical carcinoma cell line (HeLa) engineered to stably express a recombinant biosensor reporter activity and a non-cancer cell line, HaCaT (Boukamp et al., 1988, J. Cell Biol 106(3):761-771) was used with a Caspa Tag kit (commercially available eg from Chemicon). The detection of proliferation was carried out using a high content screening automated flow cytometer.
# (§2) DPD (Substance 1) was diluted to 20 microM in cell culture medium without serum adjusted to 1% DMSO. Detection of cellular events was performed in duplicate in 96-well plates after 48 hours of treatment in the FL2 (dilution of a proliferative marker) channels of a HTS flow cytometer (FACS Calibur HTS, Becton Dickenson). At day 1, cells were seeded in 96 well plates. Cells were treated with DPD and the appropriate controls on day 2 and analysis was carried out on day 4.
# [6] = system: 3T3-L1 cells; test: Adipocyte differentiation assay, inhibition, Oil Red O staining
# Protocol: To test compounds as inhibitors of adipocyte differentiation, 3T3-L1 cells are grown as above until two-day postconfluence (designated day 0), after which the cells are induced to differentiate with DMEM containing 10% fetal bovine serum (FBS), 1 μM dexamethasone (Sigma), 0.5 mM methylisobutylxanthine (Sigma), 1 μg/ml insulin (Roche Molecular Biochemicals) and the test-compound. Cells induced to differentiate in presence of solvent of the test-compounds are used as positive control. After 48 h, the cells are re-fed with DMEM containing 10% FBS supplemented with the test compound or the positive control. From day 4, cells are grown in DMEM with 10% FBS and are changed every second day until day 8. At day 8, cells are stained with Oil Red O as described below.
# Cells cultured as described above are used for Oil Red staining. Dishes are washed in PBS and cells were fixed in 3.7% paraformaldehyde for 1 h and stained with oil red O as described in (Hansen et al 1999). Oil red O solution stock solution is prepared by dissolving 0.5 g of Oil Red O (Sigma) in 100 ml of isopropanol. Oil re O working solution is prepared by diluting a stock solution with water (6:4) followed by filtration.
# [7] = system: human cervical carcinoma cell line (HeLa); test: Inhibition of cancer cell proliferation, HeLa, flow cytometry; settings: 48 hours of treatment, read-out: inhibition of proliferation of HeLa cells
# Protocol: as §1, §2
# [8] = target: T3, mPPARalphaLBD (Mus musculus, UniProt P23204); test: PPARalpha transactivation assay (mPPARalphaLBD)
# T3 construct: expressed in transfected cells
# T3 sequence (P23204 239-466 limits assumed): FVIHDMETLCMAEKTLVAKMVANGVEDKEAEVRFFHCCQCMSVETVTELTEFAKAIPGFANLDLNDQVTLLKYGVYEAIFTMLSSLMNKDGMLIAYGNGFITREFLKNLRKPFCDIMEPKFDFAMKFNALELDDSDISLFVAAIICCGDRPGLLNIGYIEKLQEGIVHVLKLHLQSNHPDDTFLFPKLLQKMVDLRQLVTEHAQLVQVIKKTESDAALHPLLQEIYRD
# Protocol: This example describes a transactivation assay for determining PPARalpha modulating activity.
# DPD and other ligands are tested for their ability to transactivate PPAR alpha essentially as described in Example 1.
compound,measurement,setting,value
"O=C(O)CC/C=C\C[C@@H]1CO[C@H](c2ccccc2Cl)O[C@@H]1c1ccccc1O (racemic) [SN1, 4-(Z)-6-(2-o-chlorophenyl-4-o-hydroxyphenyl-1,3-dioxan-cis-5-yl) hexenoic acid]",increase of RXR transactivation,[1],no transactivation
same,activation of full-length hPPARdelta,[2],no activation was seen
same,"PPAR gamma modulating activity, in words",[3],PPAR gamma agonist
same,red staining in human pre-adipocytes,[4],very little red staining
same,effect on the non-cancer cell line HaCaT,[5],no effect
same,inhibition of adipocyte differentiation,[6],no significant effect
same,inhibition at 20 µM,[7],90%
same,increase of PPAR alpha transactivation,[8],no transactivation
